Results from the NIST ThermoML archive (doi:10.1016/j.jct.2013.04.009).
± gives the expanded uncertainty stated by the source.

Assays:
[1] = Ring tensiometer
[2] = xn = mol fraction of the nth substance listed; conditions: Ring tensiometer

Molecule `CCCCO` [butan-1-ol] has a surface tension liquid-gas ([1]; 288.15 K) of 24.28 ± 1.1 mN/m, a surface tension liquid-gas ([1]; 298.15 K) of 23.48 ± 1.1 mN/m and a surface tension liquid-gas ([1]; 308.15 K) of 22.4 ± 1 mN/m. It also gave a surface tension liquid-gas ([1]; 318.15 K) of 21.64 ± 1 mN/m and a surface tension liquid-gas ([1]; 328.15 K) of 20.56 ± 1 mN/m.

With `C[S+](C)[O-]` [dimethyl sulfoxide] the surface tension liquid-gas ([1]; 288.15 K) was 43.68 ± 1.1 mN/m, the surface tension liquid-gas ([1]; 298.15 K) was 42.18 ± 1.1 mN/m and the surface tension liquid-gas ([1]; 308.15 K) was 41.11 ± 1.1 mN/m. It also gave a surface tension liquid-gas ([1]; 318.15 K) of 39.99 ± 1.1 mN/m and a surface tension liquid-gas ([1]; 328.15 K) of 38.72 ± 1.1 mN/m.

Molecule `C[S+](C)[O-]` [dimethyl sulfoxide] + CCCCO has a surface tension liquid-gas ([2]; 288.15 K, x2 = 0.0373) of 39.63 ± 1.1 mN/m, a surface tension liquid-gas ([2]; 288.15 K, x2 = 0.1042) of 36.3 ± 1.1 mN/m and a surface tension liquid-gas ([2]; 288.15 K, x2 = 0.2136) of 32.33 ± 1.1 mN/m. The surface tension liquid-gas ([2]; 288.15 K, x2 = 0.3353) was 30.13 ± 1.1 mN/m, the surface tension liquid-gas ([2]; 288.15 K, x2 = 0.449) was 28.57 ± 1.1 mN/m and the surface tension liquid-gas ([2]; 288.15 K, x2 = 0.5461) was 27.41 ± 1.1 mN/m. The surface tension liquid-gas ([2]; 288.15 K, x2 = 0.614) was 26.65 ± 1.1 mN/m, the surface tension liquid-gas ([2]; 288.15 K, x2 = 0.6643) was 26.18 ± 1.1 mN/m and the surface tension liquid-gas ([2]; 288.15 K, x2 = 0.703) was 25.77 ± 1.1 mN/m. For the same molecule, the surface tension liquid-gas ([2]; 288.15 K, x2 = 0.8512) was 25.14 ± 1.1 mN/m, the surface tension liquid-gas ([2]; 288.15 K, x2 = 0.9521) was 24.57 ± 1.1 mN/m and the surface tension liquid-gas ([2]; 298.15 K, x2 = 0.0373) was 38.43 ± 1.1 mN/m. For the same molecule, the surface tension liquid-gas ([2]; 298.15 K, x2 = 0.1042) was 35.44 ± 1.1 mN/m, the surface tension liquid-gas ([2]; 298.15 K, x2 = 0.2136) was 32.03 ± 1.1 mN/m and the surface tension liquid-gas ([2]; 298.15 K, x2 = 0.3353) was 29.72 ± 1.1 mN/m. It also gave a surface tension liquid-gas ([2]; 298.15 K, x2 = 0.449) of 27.92 ± 1.1 mN/m, a surface tension liquid-gas ([2]; 298.15 K, x2 = 0.5461) of 26.74 ± 1.1 mN/m and a surface tension liquid-gas ([2]; 298.15 K, x2 = 0.614) of 26.06 ± 1.1 mN/m. It also gave a surface tension liquid-gas ([2]; 298.15 K, x2 = 0.6643) of 25.55 ± 1.1 mN/m, a surface tension liquid-gas ([2]; 298.15 K, x2 = 0.703) of 25.17 ± 1.1 mN/m and a surface tension liquid-gas ([2]; 298.15 K, x2 = 0.8512) of 24.33 ± 1.1 mN/m. The surface tension liquid-gas ([2]; 298.15 K, x2 = 0.9521) was 23.98 ± 1.1 mN/m, the surface tension liquid-gas ([2]; 308.15 K, x2 = 0.0373) was 38.16 ± 1.1 mN/m and the surface tension liquid-gas ([2]; 308.15 K, x2 = 0.1042) was 34.43 ± 1.1 mN/m. For the same molecule, the surface tension liquid-gas ([2]; 308.15 K, x2 = 0.2136) was 30.37 ± 1.1 mN/m, the surface tension liquid-gas ([2]; 308.15 K, x2 = 0.3353) was 28.82 ± 1.1 mN/m and the surface tension liquid-gas ([2]; 308.15 K, x2 = 0.449) was 27.16 ± 1.1 mN/m. It also gave a surface tension liquid-gas ([2]; 308.15 K, x2 = 0.5461) of 25.98 ± 1.1 mN/m, a surface tension liquid-gas ([2]; 308.15 K, x2 = 0.614) of 25.27 ± 1.1 mN/m and a surface tension liquid-gas ([2]; 308.15 K, x2 = 0.6643) of 24.84 ± 1.1 mN/m. The surface tension liquid-gas ([2]; 308.15 K, x2 = 0.703) was 24.41 ± 1.1 mN/m, the surface tension liquid-gas ([2]; 308.15 K, x2 = 0.8512) was 23.41 ± 1.1 mN/m and the surface tension liquid-gas ([2]; 308.15 K, x2 = 0.9521) was 22.68 ± 1 mN/m. For the same molecule, the surface tension liquid-gas ([2]; 318.15 K, x2 = 0.0373) was 36.84 ± 1.1 mN/m, the surface tension liquid-gas ([2]; 318.15 K, x2 = 0.1042) was 33.54 ± 1.1 mN/m and the surface tension liquid-gas ([2]; 318.15 K, x2 = 0.2136) was 30.79 ± 1.1 mN/m. For the same molecule, the surface tension liquid-gas ([2]; 318.15 K, x2 = 0.3353) was 28.06 ± 1.1 mN/m, the surface tension liquid-gas ([2]; 318.15 K, x2 = 0.449) was 26.61 ± 1.1 mN/m and the surface tension liquid-gas ([2]; 318.15 K, x2 = 0.5461) was 25.33 ± 1.1 mN/m. For the same molecule, the surface tension liquid-gas ([2]; 318.15 K, x2 = 0.614) was 24.55 ± 1.1 mN/m, the surface tension liquid-gas ([2]; 318.15 K, x2 = 0.6643) was 23.98 ± 1.1 mN/m and the surface tension liquid-gas ([2]; 318.15 K, x2 = 0.703) was 23.6 ± 1.1 mN/m. The surface tension liquid-gas ([2]; 318.15 K, x2 = 0.8512) was 22.28 ± 1 mN/m, the surface tension liquid-gas ([2]; 318.15 K, x2 = 0.9521) was 21.94 ± 1 mN/m and the surface tension liquid-gas ([2]; 328.15 K, x2 = 0.0373) was 36.19 ± 1.1 mN/m. For the same molecule, the surface tension liquid-gas ([2]; 328.15 K, x2 = 0.1042) was 32.99 ± 1.1 mN/m, the surface tension liquid-gas ([2]; 328.15 K, x2 = 0.2136) was 29.37 ± 1.1 mN/m and the surface tension liquid-gas ([2]; 328.15 K, x2 = 0.3353) was 27.19 ± 1.1 mN/m. It also gave a surface tension liquid-gas ([2]; 328.15 K, x2 = 0.449) of 25.8 ± 1.1 mN/m, a surface tension liquid-gas ([2]; 328.15 K, x2 = 0.5461) of 24.35 ± 1.1 mN/m and a surface tension liquid-gas ([2]; 328.15 K, x2 = 0.614) of 23.85 ± 1.1 mN/m. For the same molecule, the surface tension liquid-gas ([2]; 328.15 K, x2 = 0.6643) was 23.3 ± 1.1 mN/m, the surface tension liquid-gas ([2]; 328.15 K, x2 = 0.703) was 22.56 ± 1 mN/m and the surface tension liquid-gas ([2]; 328.15 K, x2 = 0.8512) was 20.86 ± 1 mN/m. The surface tension liquid-gas ([2]; 328.15 K, x2 = 0.9521) was 20.55 ± 1 mN/m.
